Assay [1] has as its system 18GAAA-D1 C6G/G47C (RNA, riboswitch) GGCUUGAACAACCCCGUAGGUGGGGACGAAAGUCAGCGCACCUACUCGAGCC
The assay is described as follows: ITC. Particulars: 50 mM NaCl, 10 mM MgCl2; 50 mM HEPES pH 7.0, 25 °C; 2 mM ligand stock titrated into 0.1 mM RNA.

Assay [2] deals with 18GAAA-D1 C13G/G38C (RNA, riboswitch) GGCUUCAACAACGCCGUAGGUGGGGACGAAAGUCAGCCCACCUACUGGAGCC
The assay is described as follows: ITC. Particulars: 50 mM NaCl, 10 mM MgCl2; 50 mM HEPES pH 7.0, 25 °C; 2 mM ligand stock titrated into 0.1 mM RNA.

Assay [3] concerns 18GAAA-D1 G38C (RNA, riboswitch) GGCUUCAACAACCCCGUAGGUGGGGACGAAAGUCAGCCCACCUACUGGAGCC
The assay is described as follows: ITC. The note with it: 50 mM NaCl, 10 mM MgCl2; 50 mM HEPES pH 7.0, 25 °C; 2 mM ligand stock titrated into 0.1 mM RNA.

Assay [4] relates to 18GAAA-D1 (NAD+ riboswitch domain 1, WT) (RNA, riboswitch) GGCUUCAACAACCCCGUAGGUGGGGACGAAAGUCAGCGCACCUACUGGAGCC
The assay is described as follows: ITC. The note with it: 50 mM NaCl, 10 mM MgCl2; for Kd: 50 mM HEPES pH 7.0, 25 °C (Figure S7 legend: 20 °C), apparent.

Assay [5] has as its system C13U/C14U/G36A/G38A domain 1, Ap variant (RNA, riboswitch, 2-aminopurine (position not given)) GGCUUCAACAACUUCGUAGGUGGGGACGAAAGUCAACACACCUACUGGAGCC
The assay is described as follows: 2-aminopurine fluorescence.

Assay [6] has as its system 18GAAA-D1 G36C/G38C (RNA, riboswitch) GGCUUCAACAACCCCGUAGGUGGGGACGAAAGUCACCCCACCUACUGGAGCC
The assay is described as follows: ITC. The note with it: 50 mM NaCl, 10 mM MgCl2; 50 mM HEPES pH 7.0, 25 °C; 2 mM ligand stock titrated into 0.1 mM RNA.

Assay [7] deals with 18GAAA-D1 C13U/C14U/G36A/G38A (RNA, riboswitch) GGCUUCAACAACUUCGUAGGUGGGGACGAAAGUCAACACACCUACUGGAGCC
The assay is described as follows: ITC. Particulars: 50 mM NaCl, 10 mM MgCl2; 50 mM HEPES pH 7.0, 25 °C; 2 mM ligand stock titrated into 0.1 mM RNA.

Assay [8] deals with 18GAAA-D1 A11U (RNA, riboswitch) GGCUUCAACAUCCCCGUAGGUGGGGACGAAAGUCAGCGCACCUACUGGAGCC
The assay is described as follows: ITC. Particulars: 50 mM NaCl, 10 mM MgCl2; 50 mM HEPES pH 7.0, 25 °C (Figure S7 legend: 20 °C), apparent.

Assay [9] has as its system 18GAAA-D1 A10G (RNA, riboswitch) GGCUUCAACGACCCCGUAGGUGGGGACGAAAGUCAGCGCACCUACUGGAGCC
The assay is described as follows: ITC. Particulars: 50 mM NaCl, 10 mM MgCl2; 50 mM HEPES pH 7.0, 25 °C; 2 mM ligand stock titrated into 0.1 mM RNA.

Assay [10] relates to 17delU1A-D1 (NAD+ riboswitch domain 1) (RNA, riboswitch) GGCGCAACAUCCCCGCCGGUUGGGCGCAUUGCACUCCGCGCAGUGAACCGGCUGCGCC
The assay is described as follows: X-ray crystallography, 2.80 Å. Particulars: Mg2+; co-crystallised with U1A protein.

In assay [11] the test system is 18GAAA-D1 A8G (RNA, riboswitch) GGCUUCAGCAACCCCGUAGGUGGGGACGAAAGUCAGCGCACCUACUGGAGCC
The assay is described as follows: ITC. The note with it: 50 mM NaCl, 10 mM MgCl2; 50 mM HEPES pH 7.0, 25 °C; 2 mM ligand stock titrated into 0.1 mM RNA.

In assay [12] the test system is 832GAAA-D2 (NAD+ riboswitch domain 2) (RNA, riboswitch) GGUUUCAACAUCCCCGUUCGGCGCUCGAAAGAGGUGGCCGGACUGAAGCC
The assay is described as follows: X-ray crystallography, 2.1 Å. Particulars: Mg2+.

Assay [13] has as its system A11Ap domain 1 (RNA, riboswitch, 2-aminopurine at 11) GGCUUCAACAACCCCGUAGGUGGGGACGAAAGUCAGCGCACCUACUGGAGCC
The assay is described as follows: 2-aminopurine fluorescence, real time. The note with it: 100 mM KCl, 50 mM MgCl2; 50 mM KMOPS pH 7.5, 20 °C, 0.5 μM RNA, 0.3 mM ligand.

Assay [14] relates to 18GAAA-D1 A10C (RNA, riboswitch) GGCUUCAACCACCCCGUAGGUGGGGACGAAAGUCAGCGCACCUACUGGAGCC
The assay is described as follows: ITC. Particulars: 50 mM NaCl, 10 mM MgCl2; 50 mM HEPES pH 7.0, 25 °C; 2 mM ligand stock titrated into 0.1 mM RNA.

Assay [15] concerns 18GAAA-D1 C14G/G36C (RNA, riboswitch) GGCUUCAACAACCGCGUAGGUGGGGACGAAAGUCACCGCACCUACUGGAGCC
The assay is described as follows: ITC. Particulars: 50 mM NaCl, 10 mM MgCl2; 50 mM HEPES pH 7.0, 25 °C; 2 mM ligand stock titrated into 0.1 mM RNA.

The test system of assay [16] is 18GAAA-D1 A35C (RNA, riboswitch) GGCUUCAACAACCCCGUAGGUGGGGACGAAAGUCCGCGCACCUACUGGAGCC
The assay is described as follows: ITC. The note with it: 50 mM NaCl, 10 mM MgCl2; 50 mM HEPES pH 7.0, 25 °C; 2 mM ligand stock titrated into 0.1 mM RNA.

Assay [17] concerns 18GAAA-D1 G23A/C37U (RNA, riboswitch) GGCUUCAACAACCCCGUAGGUGAGGACGAAAGUCAGUGCACCUACUGGAGCC
The assay is described as follows: ITC. The note with it: 50 mM NaCl, 10 mM MgCl2; 50 mM HEPES pH 7.0, 25 °C; 2 mM ligand stock titrated into 0.1 mM RNA.

Assay [18] relates to 18GAAA-D1 C6U/G47A (RNA, riboswitch) GGCUUUAACAACCCCGUAGGUGGGGACGAAAGUCAGCGCACCUACUAGAGCC
The assay is described as follows: ITC. Particulars: 50 mM NaCl, 10 mM MgCl2; 50 mM HEPES pH 7.0, 25 °C; 2 mM ligand stock titrated into 0.1 mM RNA.

The subject of assay [19] is G36A/G38A/A11Ap domain 1 (RNA, riboswitch, 2-aminopurine at 11) GGCUUCAACAACCCCGUAGGUGGGGACGAAAGUCAACACACCUACUGGAGCC
The assay is described as follows: 2-aminopurine fluorescence.

Assay [20] concerns 18GAAA-D1 A8U (RNA, riboswitch) GGCUUCAUCAACCCCGUAGGUGGGGACGAAAGUCAGCGCACCUACUGGAGCC
The assay is described as follows: ITC. Particulars: 50 mM NaCl, 10 mM MgCl2; 50 mM HEPES pH 7.0, 25 °C; 2 mM ligand stock titrated into 0.1 mM RNA.

Assay [21] has as its system 18GAAA-D1 G36C (RNA, riboswitch) GGCUUCAACAACCCCGUAGGUGGGGACGAAAGUCACCGCACCUACUGGAGCC
The assay is described as follows: ITC. The note with it: 50 mM NaCl, 10 mM MgCl2; 50 mM HEPES pH 7.0, 25 °C; 2 mM ligand stock titrated into 0.1 mM RNA.

The subject of assay [22] is U11Ap domain 2 (RNA, riboswitch, 2-aminopurine at 11) GGUUUCAACAUCCCCGUUCGGCGCUCGAAAGAGGUGGCCGGACUGAAGCC
The assay is described as follows: 2-aminopurine fluorescence titration. The note with it: 100 mM KCl, 50 mM MgCl2; 50 mM KMOPS pH 7.5, 20 °C, 0.5 μM RNA, apparent.

Assay [23] deals with A11Ap domain 1 (RNA, riboswitch, 2-aminopurine at 11) GGCUUCAACAACCCCGUAGGUGGGGACGAAAGUCAGCGCACCUACUGGAGCC
The assay is described as follows: 2-aminopurine fluorescence titration. Particulars: 100 mM KCl, 50 mM MgCl2; 50 mM KMOPS pH 7.5, 20 °C, 0.5 μM RNA, apparent.

The structures appear in SMILES notation.

The values below come from PMC7708056 (2020).

In the case of `NC(=O)c1ccc[n+]([C@@H]2O[C@H](COP(=O)(O)OP(=O)(O)OC[C@H]3O[C@@H](n4cnc5c(N)ncnc54)[C@H](O)[C@@H]3O)[C@@H](O)[C@H]2O)c1`, the binding entry in assay [1], in assay [2], in assay [3], in assay [5], in assay [6] and in assay [7] was “no” throughout. Moreover, the binding result in assay [9] is “no”; in [10] it was “yes”; in assay [11], “no”; in assay [12] it was “yes”; in assay [13] it was “yes”; in [14] it was “no”. Moreover, the binding entry in assay [15] was “no”; in assay [16], “no”; in assay [17], “no”; in [18] it was “no”; in assay [19], “yes”; in [20], “no”. In addition, the binding entry in assay [21] is reported as “no”. Besides, the Kd in assay [4] worked out at 127 ± 9.5 µM; in [8], 111 ± 24.6 µM.
`NC(=O)C1=CN([C@@H]2O[C@H](COP(=O)(O)OP(=O)(O)OC[C@H]3O[C@@H](n4cnc5c(N)ncnc54)[C@H](O)[C@@H]3O)[C@@H](O)[C@H]2O)C=CC1`: in assay [4], the Kd worked out at 305 ± 46.4 µM.
On the same count and under the same terms, the result for `Nc1ncnc2c1ncn2[C@@H]1O[C@H](COP(=O)(O)OP(=O)(O)OP(=O)(O)O)[C@@H](O)[C@H]1O` reads 90.2 ± 8.6 µM.
For the compound `NC(=O)c1ccc[n+]([C@@H]2O[C@H](COP(=O)([O-])O)[C@@H](O)[C@H]2O)c1`, the binding entry in assay [4] (50 mM HEPES pH 7.0, 25 °C, 2 mM ligand stock titrated into 0.1 mM RNA) is given as “no”.
Turning to `Nc1ncnc2c1ncn2[C@@H]1O[C@H](COP(=O)(O)OP(=O)(O)O)[C@@H](O)[C@H]1O`, in assay [4], the Kd was determined as 95.3 ± 0.3 µM. The “KD^ADP” value in assay [22] amounted to 3400 ± 500 µM; in assay [23], 94 ± 3 µM. For the same compound, in assay [19], the binding entry is “yes”.
